One assay deals with BTK (Homo sapiens (Human), UniProt Q06187). Put plainly: BTK enzyme experiment (ADP-Glo kinase assay). The assay is classed as biochemical. The note with it: 10 nM BTK, ATP 125 μM, Poly(Glu4, Tyr1), 90 minutes at 20° C.; read-out: BTK(WT) IC50. A digest of the protocol: (§1)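 Wild-type or C481S BTK, added as 2× solution at 10 nM, preincubated 10 min with 3-fold compound dilutions in 50 mM HEPES pH 7.5, 10 mM MgCl2, 2 mM DTT, 0.0015% Brij-35. ADP-Glo luminescence norm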
Background: In ADP-Glo the light output rises with the ADP produced.

The next assay deals with BTK (C481S) (Homo sapiens (Human), UniProt Q06187, C481S). Description: BTK C481S enzyme experiment (ADP-Glo kinase assay). The conditions noted are these: 10 nM BTK C481S, ATP 125 μM, Poly(Glu4, Tyr1), 90 minutes at 20° C. The assay is classed as biochemical. An outline of the steps:
as §1

The next assay has as its target p-BTK (WT) (Homo sapiens (Human), UniProt Q06187). Put plainly: p-BTK cell experiment, HEK293 transfected with WT-BTK plasmid (P-BTK Y223 sandwich ELISA). The assay is classed as cell-based. The conditions noted are these: HEK293 cells, compound cultured for two hours. How it is done:
(§2) Day 1: HEK293 cells (ADDEXBIO, T0011001) at logarithmic growth phase were taken, digested with enzyme EDTA, collected and counted, and 2E6 cells were inoculated in a 10 cm culture dish and cultured overnight. Day 2: A mixed solution containing 6 μg of WT-BTK/C481S-BTK plasmid and 18 μL of FuGENE HD transfection reagent was prepared by using 1000 μL of Opti-MEM. After standing at room temperature for 10 minutes, the mixed solution was slowly added to the culture dish with a pipettor and cultured overnight. Day 3: The culture dish was taken out, and the cells were digested with enzyme EDTA, collected and counted, and 1E4 cells were inoculated in a 96-well cell culture plate and cultured overnight. A 3.16-fold gradient concentration stock solution of 1000× compound was prepared using DMSO, and placed at room temperature. Day 4: A prepared 1000× compound stock solution was taken, and diluted 200-fold to 5× compound stock solution with culture medium. 5× compound stock solution was added to each cell culture well with a final concentration of 1× compound stock solution and a DMSO content of 0.1%. DMSO was used as an experimental control. After the compound was added and cultured for two hours, the residual culture medium was removed. 100 μL of cell lysis buffer was added to each well, stood on ice for 30 minutes, and ultrasonically lysed with ice water for 5 minutes. After diluting the cell lysate in proportion, 80 μL of the mixture was transfer to an ELISA plate, and 80 μL of cell lysis buffer was added to the blank well. After incubating in an incubator at 37° C. for 2 hours, the plate was taken and the antibody incubation and color development termination operation were completed according to the instructions of Pathscan P-BTK (Y223) Sandwich ELISA Kit (Cell Signaling #23843 CA), and finally the OD value was read. The inhibition rate of the compound (%)=(ODcontrol−ODcompound)/(ODcontrol−ODblank)×100% was calculated. The compound gradient dilution concentration and the corresponding cell proliferation inhibition rate were fit by using Prism 8 four-parameter method, and IC50 value was calculated.
In general terms: An ELISA detects its analyte on a solid surface through an enzyme-linked reagent.

The target of the next assay is p-BTK (C481S) (Homo sapiens (Human), UniProt Q06187, C481S). Put plainly: p-BTK cell experiment, HEK293 transfected with C481S-BTK plasmid (P-BTK Y223 sandwich ELISA). The assay is classed as cell-based. The conditions noted are these: HEK293 cells, compound cultured for two hours. On the procedure: as §2
For a further assay, the system named is TMD-8 cells. Description: TMD-8 proliferation inhibition experiment. The assay is classed as cell-based. The note with it: human diffuse large B lymphoma cells, three days incubation. A digest of the protocol:
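Log-phase cells seeded in 384-well plates (600 TMD-8 in RPMI 1640, 2000 OCI-LY10 in IMDM, both 10% FBS), then exposed one day later to 3-fold compound dilutions at 0.25% DMSO for three days. ADP-Glo luminescence read; inhibition versus DMSO and medium-only blank, IC50 by four-parameter fit.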

Molecules are shown by their SMILES.

Sequence of p-BTK (WT) (Q06187 whole entry): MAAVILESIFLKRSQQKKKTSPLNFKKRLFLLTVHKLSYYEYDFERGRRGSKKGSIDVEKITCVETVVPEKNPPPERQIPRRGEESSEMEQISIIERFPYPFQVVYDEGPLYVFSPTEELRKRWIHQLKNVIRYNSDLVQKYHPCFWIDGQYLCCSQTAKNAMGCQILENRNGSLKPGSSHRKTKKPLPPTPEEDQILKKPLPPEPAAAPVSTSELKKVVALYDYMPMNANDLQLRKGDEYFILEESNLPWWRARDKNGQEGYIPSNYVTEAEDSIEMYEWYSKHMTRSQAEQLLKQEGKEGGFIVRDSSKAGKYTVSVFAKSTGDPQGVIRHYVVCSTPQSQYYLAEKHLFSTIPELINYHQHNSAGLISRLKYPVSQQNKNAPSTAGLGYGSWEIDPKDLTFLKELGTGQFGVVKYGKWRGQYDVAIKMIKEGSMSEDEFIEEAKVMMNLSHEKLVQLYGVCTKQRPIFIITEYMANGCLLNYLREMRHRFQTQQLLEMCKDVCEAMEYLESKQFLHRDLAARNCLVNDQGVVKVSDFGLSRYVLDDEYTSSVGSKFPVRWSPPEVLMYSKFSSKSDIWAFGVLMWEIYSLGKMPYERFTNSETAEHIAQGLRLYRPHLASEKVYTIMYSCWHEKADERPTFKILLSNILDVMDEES
Sequence of BTK (Q06187 whole entry): as above
Sequence of p-BTK (C481S) (Q06187 whole entry C481S): as the sequence (Q06187 whole entry) above, with C481S counted along it
Sequence of BTK (C481S) (Q06187 whole entry C481S): as the sequence (Q06187 whole entry) above, with C481S counted along it

In the case of `CC(=O)N1CC[C@]2(C1)Nc1c(cnc3[nH]cc(C(=O)c4ccc(Oc5ccccc5)cc4Cl)c13)NC2=O` (single isomer, unassigned) [Z4-1], the half-inhibitory concentration (IC50) (as a rule, the concentration at which inhibition is half-maximal) on BTK was 17 nM; against BTK (C481S) it was 6.8 nM; at p-BTK (WT), 70.8 nM; against p-BTK (C481S), 97.6 nM; in the assay with TMD-8 cells, 305 nM.

On to `C[C@@]1(CO)Nc2c(cnc3[nH]cc(C(=O)c4ccc(Oc5ccccc5)cc4Cl)c23)NC1=O` (single isomer, unassigned) [Z9-2], for which the concentration for half-maximal inhibition (IC50) on BTK was determined as 9.5 nM; at BTK (C481S), 10.8 nM; against p-BTK (WT), 62.6 nM; against p-BTK (C481S) it was 134 nM; in the assay with TMD-8 cells, 73.8 nM.

For the compound `O=C(c1ccc(Oc2ccccc2)cc1Cl)c1c[nH]c2ncc3c(c12)N[C@]1(CCCOC1)C(=O)N3` (single isomer, unassigned) [Z16-1], the IC50 was found to be 7.6 nM at BTK; 9.1 nM against BTK (C481S); 17.3 nM against p-BTK (WT); 36.6 nM on p-BTK (C481S); 42.8 nM in the assay on TMD-8 cells.

On to `CC(=O)N1CCC2(C1)Nc1c(cnc3[nH]cc(C(=O)c4ccc(Oc5ccccc5)cc4Cl)c13)NC2=O` (stereo not drawn) [Z4], for which the IC50 on BTK amounted to 17.1 nM; at BTK (C481S), 10.3 nM; on p-BTK (WT) it was 375 nM; against p-BTK (C481S) it was 340 nM.

With `CN1CCC2(C1)Nc1c(cnc3[nH]cc(C(=O)c4ccc(Oc5ccccc5)cc4F)c13)NC2=O` (stereo not drawn) [Z5], the 50% inhibitory concentration (IC50) at BTK turned out to be 27.8 nM; against BTK (C481S), 12 nM; on p-BTK (WT) it was 35.8 nM; on p-BTK (C481S), 36.6 nM.

As for `COCC1(C)Nc2c(cnc3[nH]cc(C(=O)c4ccc(Oc5cc(C)ccn5)cc4Cl)c23)NC1=O` (stereo not drawn) [Z64, 9-(2-chloro-4-((4-methylpyridin-2-yl)oxy)benzoyl)-2-(methoxymethyl)-2-methyl-1,2,4,7-tetrahydro-3H-pyrrolo[3′,2′:5,6]pyrido[3,4-b]pyrazin-3-one], the IC50 on BTK came out at 6.5 nM; at BTK (C481S), 13.3 nM; at p-BTK (WT) it was 65.8 nM; against p-BTK (C481S), 90 nM.

On to `CC1(C)Nc2c(cnc3[nH]cc(C(=O)c4ccccc4Cl)c23)NC1=O` [Z120, 9-(2-chlorobenzoyl)-2,2-dimethyl-1,2,4,7-tetrahydro-3H-pyrrolo[3′,2′:5,6]pyrido[3,4-b]pyrazin-3-one], for which the IC50 on BTK is 4.3 nM; against BTK (C481S), 2 nM; against p-BTK (WT) it was 2.5 nM; on p-BTK (C481S), 1 nM.

For the compound `COC[C@]1(C)Nc2c(cnc3[nH]cc(C(=O)c4ccc(Oc5cccc(F)c5)cc4Cl)c23)NC1=O` [Z157, (S)-9-(2-chloro-4-(3-fluorophenoxy)benzoyl)-2-(methoxymethyl)-2-methyl-1,2,4,7-tetrahydro-3H-pyrrolo[3′,2′:5,6]pyrido[3,4-b]pyrazin-3-one], the IC50 at BTK was found to be 15.2 nM; against BTK (C481S), 10.8 nM; in the assay with TMD-8 cells (Homo sapiens, TMD8, 72 h), 145 nM.

For `[2H]C([2H])([2H])OC[C@]1(C)Nc2c(cnc3[nH]cc(C(=O)c4ccc(Oc5cccc(F)c5)cc4Cl)c23)NC1=O` [Z162, (S)-9-(2-chloro-4-(3-fluorophenoxy)benzoyl)-2-((methoxy-d3)methyl)-2-methyl-1,2,4,7-tetrahydro-3H-pyrrolo[3′,2′:5,6]pyrido[3,4-b]pyrazin-3-one], the concentration for half-maximal inhibition (IC50) on BTK amounted to 25.6 nM; against BTK (C481S), 36 nM; in the assay on TMD-8 cells (Homo sapiens, TMD8, 72 h), 169 nM.

With `COC[C@]1(C)Nc2c(cnc3[nH]cc(C(=O)c4ccc(Oc5ccccc5OC)cc4Cl)c23)NC1=O` [Z163, (S)-9-(2-chloro-4-(2-methoxyphenoxy)benzoyl)-2-(methoxymethyl)-2-methyl-1,2,4,7-tetrahydro-3H-pyrrolo[3′,2′:5,6]pyrido[3,4-b]pyrazin-3-one], the IC50 on BTK turned out to be 10.6 nM; against BTK (C481S), 16.5 nM; with TMD-8 cells (Homo sapiens, TMD8, 72 h), 75.7 nM.

In the case of `COC[C@]1(C)Nc2c(cnc3[nH]cc(C(=O)c4ccc(Oc5ccccc5Cl)cc4Cl)c23)NC1=O` [Z164, (S)-9-(2-chloro-4-(2-chlorophenoxy)benzoyl)-2-(methoxymethyl)-2-methyl-1,2,4,7-tetrahydro-3H-pyrrolo[3′,2′:5,6]pyrido[3,4-b]pyrazin-3-one], the IC50 on BTK was determined as 22.4 nM; against BTK (C481S), 30.1 nM; in the assay on TMD-8 cells (Homo sapiens, TMD8, 72 h) it was 145 nM.

On to `COC[C@]1(C)Nc2c(cnc3[nH]cc(C(=O)c4ccc(Oc5cccc(Cl)c5)cc4Cl)c23)NC1=O` [Z165, (S)-9-(2-chloro-4-(3-chlorophenoxy)benzoyl)-2-(methoxymethyl)-2-methyl-1,2,4,7-tetrahydro-3H-pyrrolo[3′,2′:5,6]pyrido[3,4-b]pyrazin-3-one], for which the IC50 turned out to be 54.2 nM on BTK; 73.9 nM against BTK (C481S); 366 nM in the assay with TMD-8 cells (Homo sapiens, TMD8, 72 h).

With `COC[C@]1(C)Nc2c(cnc3[nH]cc(C(=O)c4ccc(Oc5cccc(OC)c5)cc4Cl)c23)NC1=O` [Z166, (S)-9-(2-chloro-4-(3-methoxyphenoxy)benzoyl)-2-(methoxymethyl)-2-methyl-1,2,4,7-tetrahydro-3H-pyrrolo[3′,2′:5,6]pyrido[3,4-b]pyrazin-3-one], the 50% inhibitory concentration (IC50) amounted to 34 nM on BTK; 59.4 nM against BTK (C481S); 245 nM with TMD-8 cells (Homo sapiens, TMD8, 72 h).

Turning to `CCOC[C@]1(C)Nc2c(cnc3[nH]cc(C(=O)c4ccc(Oc5cc(C)ccn5)cc4Cl)c23)NC1=O` [Z167, (S)-9-(2-chloro-4-((4-methylpyridin-2-yl)oxy)benzoyl)-2-(ethoxymethyl)-2-methyl-1,2,4,7-tetrahydro-3H-pyrrolo[3′,2′:5,6]pyrido[3,4-b]pyrazin-3-one], the half-inhibitory concentration (IC50) was 11.2 nM on BTK; 12.1 nM against BTK (C481S); 372 nM in the assay on TMD-8 cells (Homo sapiens, TMD8, 72 h).

`COC[C@]1(C)Nc2c(cnc3[nH]cc(C(=O)c4ccc(Oc5cccc(F)c5OC)cc4Cl)c23)NC1=O` [Z173, (S)-9-(2-chloro-4-(3-fluoro-2-methoxyphenoxy)benzoyl)-2-(methoxymethyl)-2-methyl-1,2,4,7-tetrahydro-3H-pyrrolo[3′,2′:5,6]pyrido[3,4-b]pyrazin-3-one]: the half-inhibitory concentration (IC50) at BTK was determined as 26.5 nM; against BTK (C481S) it was 18.4 nM; with TMD-8 cells (Homo sapiens, TMD8, 72 h), 366 nM.

On to `COC[C@]1(C)Nc2c(cnc3[nH]cc(C(=O)c4ccc(Oc5c(OC)ccc(F)c5F)cc4Cl)c23)NC1=O` [Z177, (S)-9-(2-chloro-4-(2,3-difluoro-6-methoxyphenoxy)benzoyl)-2-(methoxymethyl)-2-methyl-1,2,4,7-tetrahydro-3H-pyrrolo[3′,2′:5,6]pyrido[3,4-b]pyrazin-3-one], for which the concentration for half-maximal inhibition (IC50) on BTK was 6.4 nM; against BTK (C481S), 11.1 nM; in the assay with TMD-8 cells (Homo sapiens, TMD8, 72 h), 34.6 nM.

As to `[2H]C([2H])([2H])Oc1c(F)cccc1Oc1ccc(C(=O)c2c[nH]c3ncc4c(c23)N[C@@](C)(COC)C(=O)N4)c(Cl)c1` [Z178, (S)-9-(2-chloro-4-(3-fluoro-2-(methoxy-d3)phenoxy)benzoyl)-2-(methoxymethyl)-2-methyl-1,2,4,7-tetrahydro-3H-pyrrolo[3′,2′:5,6]pyrido[3,4-b]pyrazin-3-one], the IC50 is 36.2 nM at BTK; 42.3 nM against BTK (C481S); 257 nM in the assay on TMD-8 cells (Homo sapiens, TMD8, 72 h).

Turning to `COC[C@]1(C)Nc2c(cnc3[nH]cc(C(=O)c4ccc(F)c(F)c4Cl)c23)NC1=O` [Z195, (S)-9-(2-chloro-3,4-difluorobenzoyl)-2-(methoxymethyl)-2-methyl-1,2,4,7-tetrahydro-3H-pyrrolo[3′,2′:5,6]pyrido[3,4-b]pyrazin-3-one], the IC50 was determined as 3.9 nM at BTK, 3.9 nM at BTK (C481S), 2.8 nM against p-BTK (WT) and 1.4 nM against p-BTK (C481S).

On to `O=C(c1ccccc1Cl)c1c[nH]c2ncc3c(c12)NC1(CCOCC1)C(=O)N3` [Z197, 9′-(2-chlorobenzoyl)-2,3,4′,5,6,7′-hexahydrospiro[pyran-4,2′-pyrrolo[3′,2′:5,6]pyrido[3,4-b]pyrazin]-3′(1′H)-one], for which the IC50 on BTK worked out at 3 nM; against BTK (C481S), 1.3 nM; against p-BTK (WT), 5.2 nM; on p-BTK (C481S) it was 1.6 nM.
